The source of these data is patent US7989620B2, “Hydantoin derivatives for the treatment of obstructive airway diseases” (AstraZeneca AB, priority 2004, dated 2011).

Each structure is given as a SMILES string. ≈ marks a conversion by molar mass, not a printed value.

The target in data set [1] is T1, Recombinant human MMP19 catalytic domain (Homo sapiens, UniProt Q99542).
T1 construct: Recombinant human MMP19 catalytic domain; made in house
Put plainly: Isolated enzyme assay MMP19. The class given is biochemical. As to conditions: read-out: hMMP19 IC50. On the procedure:
Recombinant human MMP19 catalytic domain may be expressed and purified as described by Parkar A. A. et al, (2000), Protein Expression and Purification, 20:152. The purified enzyme can be used to monitor inhibitors of activity as follows: MMP19 (40 ng/ml final concentration) is incubated for 120 minutes at 35° C. with the synthetic substrate Mca-Pro-Leu-Ala-Nva-Dpa-Ala-Arg-NH2 (5 μM) in assay buffer (0.1M “Tris-HCl ” (trade mark) buffer, pH 7.3 containing 0.1M NaCl, 20 mM CaCl2, 0.020 mM ZnCl and 0.05% (w/v) “Brij 35” (trade mark) detergent) in the presence (5 concentrations) or absence of inhibitors. Activity is determined by measuring the fluorescence at λex 320 nm and λem 405 nm. Percent inhibition is calculated as follows: % Inhibition is equal to the [Fluorescenceplus inhibitor−Fluorescencebackground] divided by the [Fluorescenceminus inhibitor−Fluorescencebackground].

The target in data set [2] is T2, Recombinant human MMP 12 catalytic domain (Homo sapiens, UniProt P39900).
T2 construct: Recombinant human MMP 12 catalytic domain; made in house
T2 sequence (P39900 106-263 limits assumed): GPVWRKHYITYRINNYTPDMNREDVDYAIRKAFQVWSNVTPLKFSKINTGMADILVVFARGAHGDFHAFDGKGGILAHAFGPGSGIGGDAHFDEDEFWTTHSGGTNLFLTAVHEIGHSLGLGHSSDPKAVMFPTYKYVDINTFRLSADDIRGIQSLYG
Kind of data set: Isolated enzyme assay MMP12. Type of data set: biochemical. As to conditions: read-out: hMMP12 IC50. The procedure: Recombinant human MMP 12 catalytic domain may be expressed and purified as described by Parkar A. A. et al, (2000), Protein Expression and Purification, 20, 152. The purified enzyme can be used to monitor inhibitors of activity as follows: MMP12 (50 ng/ml final concentration) is incubated for 60 minutes at room temperature with the synthetic substrate Mca-Pro-Cha-Gly-Nva-His-Ala-Dpa-NH2 (10 μM) in assay buffer (0.1M “Tris-HCP” (trade mark) buffer, pH 7.3 containing 0.1M NaCl, 20 mM CaCl2, 0.020 mM ZnCl and 0.05% (w/v) “Brij 35” (trade mark) detergent) in the presence (10 concentrations) or absence of inhibitors. Activity is determined by measuring the fluorescence at λex 320 nm and λem 405 nm. Percent inhibition is calculated as follows: % Inhibition is equal to the [Fluorescenceplus inhibitor−Fluorescencebackground] divided by the [Fluorescenceminus inhibitor−Fluorescencebackground]. MMP8

Another data set has as its target T3, hMMP8 (Homo sapiens, UniProt P22894).
T3 construct: purchased Calbiochem
Put plainly: Isolated enzyme assay MMP8. The class given is biochemical. The procedure:
Purified pro-MMP8 is purchased from Calbiochem. The enzyme (at 10 μg/ml) is activated by p-amino-phenyl-mercuric acetate (APMA) at 1 mM for 2.5 h, 35° C. The activated enzyme can be used to monitor inhibitors of activity as follows: MMP8 (200 ng/ml final concentration) is incubated for 90 minutes at 35° C. (80% H2O) with the synthetic substrate Mca-Pro-Cha-Gly-Nva-His-Ala-Dpa-NH2 (12.5 μM) in assay buffer (0.1M “Tris-HCl” (trade mark) buffer, pH 7.5 containing 0.1M NaCl, 30 mM CaCl2, 0.040 mM ZnCl and 0.05% (w/v) “Brij 35” (trade mark) detergent) in the presence (10 concentrations) or absence of inhibitors. Activity is determined by measuring the fluorescence at λex 320 nm and λem 405 nm. Percent inhibition is calculated as follows: % Inhibition is equal to the [Fluorescenceplus inhibitor−Fluorescencebackground] divided by the [Fluorescenceminus inhibitor−Fluorescencebackground]. MMP9

Data set [3] in a line: Determination of solubility in 0.1M phosphate buffer, pH 7.4. As to conditions: 20 °C, pH 7.4, aqueous buffer, thermodynamic from solid.
Procedure: Protocol for Determination of Solubility
The test compound (1 mg) was weighed into a 2 mL glass vial with a screw cap and 0.1 M phosphate buffer pH 7.4. (1.00 mL) was added. The sample vial was then sonicated for about 10 minutes and then placed on a shake board overnight at 20° C. The contents of the sample vial were then filtered through a Millipore Millex-LH 0.45 μm filter into a new 2 mL glass vial to give a clear solution. The clear solution (40 μL) was transferred to a new 2 mL glass vial and diluted with 0.1 M phosphate buffer, pH 7.4 (960 μL).
A standard calibration curve for each particular test compound was established using solutions of known concentration. These solutions of known concentration were normally chosen to have concentrations of ˜10 μg/mL and ˜50 μg/mL. They were prepared by dissolving a known weight of the compound in 99.5% ethanol (500 μL) and then sonicating for one minute if necessary. If the compound was still not completely dissolved, DMSO (500 μL) was added and the mixture sonicated for an additional one minute. The resulting solution was then diluted to the appropriate volume with a mixture of acetonitrile/100 mM ammonium acetate pH 5.5 20-50/80-50. If necessary, a further, more dilute, standard solution was prepared by dilution.
The target of data set [4] is T4, Recombinant human MMP 14 catalytic domain (Homo sapiens, UniProt P50281).
T4 construct: Recombinant human MMP 14 catalytic domain; made in house
Kind of data set: Isolated enzyme assay MMP14. The class given is biochemical. As to conditions: read-out: hMMP14 IC50. On the procedure:
Recombinant human MMP 14 catalytic domain may be expressed and purified as described by Parkar A. A. et al, (2000), Protein Expression and Purification, 20, 152. The purified enzyme can be used to monitor inhibitors of activity as follows: MMP14 (10 ng/ml final concentration) is incubated for 60 minutes at room temperature with the synthetic substrate Mca-Pro-Cha-Gly-Nva-His-Ala-Dpa-NH2 (10 μM) in assay buffer (0.1M “Tris-HCl” (trade mark) buffer, pH 7.5 containing 0.1M NaCl, 20 mM CaCl2, 0.020 mM ZnCl and 0.05% (w/v) “Brij 35” (trade mark) detergent) in the presence (5 concentrations) or absence of inhibitors. Activity is determined by measuring the fluorescence at λex 320 nm and λem 405 nm. Percent inhibition is calculated as follows: % Inhibition is equal to the [Fluorescenceplus inhibitor−Fluorescencebackground] divided by the [Fluorescenceminus inhibitor−Fluorescencebackground].

The next data set deals with plasma protein. Kind of data set: Plasma protein binding by ultrafiltration. As to conditions: 10 μM, room temperature.
Data set [5] addresses T5, Recombinant human MMP9 catalytic domain (Homo sapiens, UniProt P14780).
T5 sequence (P14780 with tags, fused parts or gaps DEL216-390 limits assumed): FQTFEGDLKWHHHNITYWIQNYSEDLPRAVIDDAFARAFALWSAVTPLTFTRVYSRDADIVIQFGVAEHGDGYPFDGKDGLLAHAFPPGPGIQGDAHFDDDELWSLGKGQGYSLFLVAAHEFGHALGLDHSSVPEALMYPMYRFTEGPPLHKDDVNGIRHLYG
Put plainly: Isolated enzyme assay MMP9. Type of data set: biochemical. As to conditions: read-out: hMMP9 IC50. The procedure:
Recombinant human MMP9 catalytic domain was expressed and then purified by Zn chelate column chromatography followed by hydroxamate affinity column chromatography. The enzyme can be used to monitor inhibitors of activity as follows: MMP9 (5 ng/ml final concentration) is incubated for 30 minutes at RT with the synthetic substrate Mca-Pro-Cha-Gly-Nva-His-Ala-Dpa-NH2 (5 μM) in assay buffer (0.1 M “Tris-HCl” (trade mark) buffer, pH 7.3 containing 0.1M NaCl, 20 mM CaCl2, 0.020 mM ZnCl and 0.05% (w/v) “Brij 35” (trade mark) detergent) in the presence (10 concentrations) or absence of inhibitors. Activity is determined by measuring the fluorescence at λex 320 nm and λem 405 nm. Percent inhibition is calculated as follows: % Inhibition is equal to the [Fluorescenceplus inhibitor−Fluorescencebackground] divided by the [Fluorescenceminus inhibitor−Fluorescencebackground]. MMP14
A protocol for testing against other matrix metalloproteinases, including MMP9, using expressed and purified pro MMP is described, for instance, by C. Graham Knight et al., (1992) FEBS Lett., 296(3), 263-266.

T1 sequence (Q99542 98-256 limits assumed): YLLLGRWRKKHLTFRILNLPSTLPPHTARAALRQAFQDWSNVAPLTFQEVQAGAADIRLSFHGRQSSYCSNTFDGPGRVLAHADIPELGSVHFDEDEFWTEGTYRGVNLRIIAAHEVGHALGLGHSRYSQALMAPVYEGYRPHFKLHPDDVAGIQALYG
T3 sequence (P22894 101-467): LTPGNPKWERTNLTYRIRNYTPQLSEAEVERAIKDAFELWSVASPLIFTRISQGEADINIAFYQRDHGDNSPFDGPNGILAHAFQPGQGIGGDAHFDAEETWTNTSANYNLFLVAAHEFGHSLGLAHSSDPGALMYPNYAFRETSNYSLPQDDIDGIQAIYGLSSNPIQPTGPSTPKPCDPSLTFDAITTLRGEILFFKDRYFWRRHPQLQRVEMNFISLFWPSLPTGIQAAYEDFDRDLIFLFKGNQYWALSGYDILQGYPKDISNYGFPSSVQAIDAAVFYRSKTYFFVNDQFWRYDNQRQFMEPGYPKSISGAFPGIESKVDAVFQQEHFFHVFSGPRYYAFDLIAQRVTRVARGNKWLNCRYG
Procedure for plasma protein: Plasma protein binding was determined by ultrafiltration in an automated 96 well format assay. On each test occasion the plasma protein binding of a reference compound (budesonide) was monitored in parallel.
Test compounds (10 mM dissolved in DMSO) were added to plasma to a final concentration of 10 μM and equilibrated at room temperature for 10 minutes. 350 μL of the plasma was transferred to an ultrafiltration plate, Microcon-96 (10 kDa cutoff, Millipore). The ultrafiltration plate was centrifuged at 3000 G for 70 minutes at room temperature. After centrifugation, the concentration of the compounds in the obtained plasma water (the unbound fraction) was determined by LC-MS/MS using a 3-point calibration curve and compared to the concentration in the original spiked plasma.
The analyses were performed using a gradient chromatographic system with acetic acid/acetonitrile as mobile phases.

In the case of `Cc1ccc(C#CC2=CCN(S(=O)(=O)C[C@@]3(C)NC(=O)NC3=O)CC2)cc1` [(5S)-5-methyl-5-({[4-[(4-methylphenyl)ethynyl]-3,6-dihydropyridin-1(2H)-yl]sulfonyl}methyl)imidazolidine-2,4-dione, reference compound], the 50% inhibitory concentration (IC50) (commonly the midpoint of a concentration-inhibition curve) in data set [1] was 1.97 µM; in data set [2] it was 0.003 µM; against hMMP8, 0.384 µM; in data set [4] it was 4.43 µM; in data set [5], 0.034 µM. The amount in solution in data set [3] (solubility) came to 72 µM (≈ 27.9 µg/mL). Moreover, in the data set with plasma protein, the “Protein binding (% free)” value turned out to be 2.25 % free.
With `C[C@]1(CS(=O)(=O)N2CC=C(C#Cc3cnc(C(F)(F)F)nc3)CC2)NC(=O)NC1=O` [Example 3], the “Solubility pH 7.4” value is on record as 118 μM. For the same compound, the IC50 in data set [1] is 7.9 µM. Besides, in data set [2], the IC50 worked out at 0.006 µM. Moreover, at hMMP8, the concentration for half-maximal inhibition (IC50) was determined as 0.547 µM. The concentration for half-maximal inhibition (IC50) in data set [4] was more than 10 µM. Further, the IC50 in data set [5] came to 0.005 µM.
`CCc1ncc(C#CC2=CCN(S(=O)(=O)C[C@@]3(C)NC(=O)NC3=O)CC2)cn1.O=C(O)C(F)(F)F` [Example 5, (5S)-5-({[4-[(2-Ethylpyrimidin-5-yl)ethynyl]-3,6-dihydropyridin-1(2H) -yl]sulfonyl}methyl)-5-methylimidazolidine-2,4-dione trifluoroacetate]: the IC50 is 0.009 µM in data set [2], 1.14 µM against hMMP8, more than 10 µM in data set [4] and 0.009 µM in data set [5]. The solubility (commonly the concentration that dissolves in the medium under given conditions) in data set [3] amounted to 91 µM. In addition, in the data set with plasma protein, the “Protein binding (% free)” value came to 47 % free.
As for `C[C@]1(CS(=O)(=O)N2CC=C(C#Cc3cnc(C4CC4)nc3)CC2)NC(=O)NC1=O` [Example 1, (5S)-5-({[4-[(2-Cyclopropylpyrimidin-5-yl)ethynyl]-3,6-dihydropyridin-1(2H) -yl]sulfonyl}methyl)-5-methylimidazolidine-2,4-dione], the IC50 is 0.006 µM in data set [2], 2.53 µM on hMMP8, more than 10 µM in data set [4] and 0.005 µM in data set [5]. In data set [3], this compound yielded a solubility of 396 µM (≈ 165 µg/mL). In addition, the “Protein binding (% free)” value in the data set with plasma protein stood at 18 % free.
In the case of `C[C@]1(CS(=O)(=O)N2CC=C(C#Cc3ccc(Cl)cc3)CC2)NC(=O)NC1=O` [(5S)-5-({[4-[(4-chlorophenyl)ethynyl]-3,6-dihydropyridin-1(2H)-yl]sulfonyl}methyl)-5-methylimidazolidine-2,4-dione, reference compound], the 50% inhibitory concentration (IC50) in data set [1] worked out at 3.98 µM; in data set [2], 0.002 µM; against hMMP8, 0.18 µM; in data set [4], 4.3 µM; in data set [5], 0.009 µM. Moreover, in data set [3], the concentration in solution (solubility) came to 49 µM (≈ 20 µg/mL). Further, the “Protein binding (% free)” value with plasma protein was 1.75 % free.
